Patent US20260174671A1, “COMPOSITION FOR ALLEVIATING OR PREVENTING SYMPTOMS OF ALLERGIC RHINITIS OR ALLERGIC CONJUNCTIVITIS” (Nissui Corporation, priority 2022, published 2026)

Tests used:
[1] = test system: atopic dermatitis model mice; settings: PTL 4, cited from earlier work
[2] = test system: adult males and females who had experienced nasal and/or eye discomfort due to pollen; experiment: Severity classification of allergic rhinitis symptoms, placebo-controlled intake test during the pollen season; assay type: in vivo, human
Text: The severity classification of allergic rhinitis symptoms refers to a method of classifying the severity based on Practical Guideline for the Management of Allergic Rhinitis in Japan 2020 (Committee of the Practical Guideline for the Management of Allergic Rhinitis). Specifically, each evening, the subject himself/herself selects the one that best describes the severity of the day on the subjective symptoms on each item listed in the table below.
The subjects were adult males and females who had experienced nasal and/or eye discomfort due to pollen for the past 2 years.
The remaining 36 subjects were randomized and divided into a DGLA administration group (intervention group; hereinafter referred to as DGLA group) with 18 subjects and a placebo administration group (control group; hereinafter referred to as placebo group) with 18 subjects. 3 subjects in the placebo group became untraceable during the testing. Therefore, the analysis was performed on 18 subjects in the DGLA group and 15 subjects in the placebo group.
The DGLA group: DGLA-containing oil (DGLA of 31.4% by weight) was taken at 1,000 mg/day for 15 weeks. The DGLA of 314 mg/day is to be taken in terms of free fatty acid. The DGLA-containing oil was obtained by the method described in Japanese Patent No. 3354581. Specifically, to 200 g of dry cells of a filamentous fungus (Mortierella alpina), 500 mL of hexane was added, the mixture was stirred, and the filtration was repeated three times to extract oil, and then the hexane layer was evaporated to obtain DGLA-containing oil. The subjects took 4 capsules filled with this oil per day.
The intake duration of the diet for testing was 15 weeks from January 8th to Apr. 23, 2022. […]
(§1) The mean±SD of the change in score from the start of the testing was calculated for each group at each time point, and statistical analysis was conducted. […]

[3] = test system: adult males and females who had experienced nasal and/or eye discomfort due to pollen; experiment: Japanese Allergic Rhinitis Standard Quality of Life Questionnaire (JRQLQ), placebo-controlled intake test during the pollen season; assay type: in vivo, human
Text: The JRQLQ is a questionnaire created by Okuda et al. to assess the impact of allergic rhinitis on quality of life (QOL) (Minoru Okuda et al.: Japanese Rhino-conjunctivitis Quality-of-Life Questionnaire (2002 edition), Committee of the Japanese Rhino-conjunctivitis Quality-of-Life Questionnaire, Allergy 2003; 52:21-56). […] In the JRQLQ, the subject himself/herself selects the one that best describes the severity of the worst nasal and eye symptoms the subject has experienced in the past 1-2 weeks on the items listed in the table below.
Also, as shown in Examples to be described later, the composition of the present invention can reduce the scores of nasal and eye symptoms in the JRQLQ, in particular, or suppress the increase of the score, compared to the placebo group. In the present invention, the phrase the “score of nasal and eye symptoms in the JRQLQ” means the sum of the scores of runny nose, sneezing, blocked nose, itchy nose, itchy eyes, and watery eyes in the JRQLQ. In a preferred embodiment of the present invention, the composition of the present invention can be used for reducing the scores of nasal and eye symptoms in the JRQLQ, or suppressing the increase of the score, compared to the placebo group. […]
as §1

dermatitis model animals = settings: intake of DGLA; PTL 2; cited from earlier work
[4] = test system: splenocytes from the model mice; settings: PTL 4; cited from earlier work

CCCCC/C=C\C/C=C\C/C=C\CCCCC(=O)OCC [γ-linolenic acid (GLA) ethyl ester]
hyper IgE production ([1]; oral administration, atopic dermatitis model mice): suppressed hyper IgE production

CCCCCC=CCC=CCC=CCCCCCCC(=O)O [DGLA, 8,11,14-eicosatrienoic acid]
sneezing attack score in the severity classification of allergic rhinitis symptoms, change from the start of testing (week 0) ([2]; DGLA group (n=18) vs placebo group (n=15), DGLA-containing oil 1,000 mg/day (DGLA 314 mg/day) oral, 15 weeks, p<0.01, FIG. 1): significantly reduced | nasal congestion score in the severity classification of allergic rhinitis symptoms, change from the start of testing (week 0) ([2]; DGLA group (n=18) vs placebo group (n=15), DGLA-containing oil 1,000 mg/day (DGLA 314 mg/day) oral, 15 weeks, p<0.05, FIG. 2): significantly reduced | stratification analysis of the DGLA group, severity classification items (sneezing attack, nasal discharge, nasal congestion, itchy eyes, tearing) ([2]; Group H (score 1 or higher at week 0) vs Group L (score 0), no significant difference, P=0.249-0.712, FIGS. 4 to 8): all the mean values for the items of Group H were lower than those of Group L | JRQLQ nasal and eye symptom score (sum of runny nose, sneezing, blocked nose, itchy nose, itchy eyes, watery eyes), change from week 0 ([3]; DGLA group (n=18) vs placebo group (n=15), DGLA-containing oil 1,000 mg/day (DGLA 314 mg/day) oral, 15 weeks, p<0.1, FIG. 3): tended to be reduced | stratification analysis of the DGLA group, JRQLQ items (runny nose, sneezing, blocked nose, itchy nose, itchy eyes, watery eyes) ([3]; Group H (score 1 or higher at week 0) vs Group L (score 0), no significant difference, P=0.084-0.59, FIGS. 9 to 14): all the mean values for the items of Group H were lower than those of Group L | dermatitis (dermatitis model animals): suppresses dermatitis

CCCCC/C=C\C/C=C\C/C=C\CCCCC(=O)O [GLA, γ-linolenic acid]
IgE production ([1]; orally administered for two months, atopic dermatitis-affected mice with hyper IgE-emia): suppression of IgE production was not observed | IgE production in vitro [4]: suppressed IgE production
